Columns and labels:
Assay in all cases: relative viability (nuclei count vs DMSO), 5 days (fraction); higher = more cells survive
H3255 = system: H3255
In short: (§1)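 Cells from lung cancer lines were seeded into 1536-well plates and, one day later, dosed by pin tool. Treatments were either a single drug or a fixed dose of an anchor drug with five library-drug doses (not always all listed) in √10 steps. After 5 days, nuclei were stained in a one-step fixation (final 0.05% Triton X-100, 1% formaldehyde, 1 ug/ml Hoechst) and counted on 4× images, and relative viability is the treated-to-vehicle nuclei ratio, as the median of duplicate plates.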

NCI-H1944 = system: NCI-H1944
In short: as §1

NCI-H1915 = system: NCI-H1915
In short: as §1

NCI-H661 = system: NCI-H661
In short: as §1

ABC-1 = system: ABC-1
In short: as §1

NCI-H441 = system: NCI-H441
In short: as §1

NCI-H1650 = system: NCI-H1650
In short: as §1

NCI-H2087 = system: NCI-H2087
In short: as §1

NCI-H2023 = system: NCI-H2023
In short: as §1

BEN = system: BEN
In short: as §1

CAL-12T = system: CAL-12T
In short: as §1

201T = system: 201T
In short: as §1

NCI-H460 = system: NCI-H460
In short: as §1

NCI-H596 = system: NCI-H596
In short: as §1

NCI-H1651 = system: NCI-H1651
In short: as §1

NCI-H520 = system: NCI-H520
In short: as §1

LC-2-ad = system: LC-2-ad
In short: as §1

NCI-H650 = system: NCI-H650
In short: as §1

NCI-H727 = system: NCI-H727
In short: as §1

LCLC-97TM1 = system: LCLC-97TM1
In short: as §1

PC-3 [JPC-3] = system: PC-3 [JPC-3]
In short: as §1

A-427 = system: A-427
In short: as §1

Q: With `O=c1cc(-c2cccc3c2Sc2ccccc2S3)oc(N2CCOCC2)c1` + O=C(c1cc(Cc2n[nH]c(=O)c3ccccc23)ccc1F)N1CCN(C(=O)C2CC2)CC1 [Olaparib] (partner 8 µM) as the compound, how does the relative viability (H3255; first compound 0.08 µM) read?
A: 0.592

Q: What about the relative viability (H3255; first compound 0.253 µM) of the same compound?
A: 0.586

Q: What about the relative viability (H3255; first compound 0.8 µM) of the same compound?
A: 0.571

Q: What about the relative viability (H3255; first compound 2.53 µM) of the same compound?
A: 0.525

Q: What about the relative viability (H3255; first compound 8 µM) of the same compound?
A: 0.594

Q: And the relative viability (NCI-H1944; first compound 0.08 µM)?
A: 0.401

Q: What about the relative viability (NCI-H1944; first compound 0.253 µM) of the same compound?
A: 0.401

Q: And the relative viability (NCI-H1944; first compound 0.8 µM)?
A: 0.414

Q: What about the relative viability (NCI-H1944; first compound 2.53 µM) of the same compound?
A: 0.43

Q: What about the relative viability (NCI-H1944; first compound 8 µM) of the same compound?
A: 0.397

Q: What about the relative viability (NCI-H1915; first compound 0.08 µM) of the same compound?
A: 0.425

Q: And the relative viability (NCI-H1915; first compound 0.253 µM)?
A: 0.266

Q: And the relative viability (NCI-H1915; first compound 0.8 µM)?
A: 0.296

Q: And the relative viability (NCI-H1915; first compound 2.53 µM)?
A: 0.305

Q: What about the relative viability (NCI-H1915; first compound 8 µM) of the same compound?
A: 0.226

Q: What about the relative viability (NCI-H661; first compound 0.08 µM) of the same compound?
A: 0.809

Q: And the relative viability (NCI-H661; first compound 0.253 µM)?
A: 0.808

Q: And the relative viability (NCI-H661; first compound 0.8 µM)?
A: 0.76

Q: What about the relative viability (NCI-H661; first compound 2.53 µM) of the same compound?
A: 0.777

Q: What about the relative viability (NCI-H661; first compound 8 µM) of the same compound?
A: 0.712

Q: And the relative viability (ABC-1; first compound 0.08 µM)?
A: 0.821

Q: And the relative viability (ABC-1; first compound 0.253 µM)?
A: 0.718

Q: And the relative viability (ABC-1; first compound 0.8 µM)?
A: 0.735

Q: What about the relative viability (ABC-1; first compound 2.53 µM) of the same compound?
A: 0.777

Q: And the relative viability (ABC-1; first compound 8 µM)?
A: 0.75

Q: And the relative viability (NCI-H441; first compound 0.08 µM)?
A: 0.603

Q: What about the relative viability (NCI-H441; first compound 0.253 µM) of the same compound?
A: 0.708

Q: And the relative viability (NCI-H441; first compound 0.8 µM)?
A: 0.518

Q: And the relative viability (NCI-H441; first compound 2.53 µM)?
A: 0.461

Q: And the relative viability (NCI-H441; first compound 8 µM)?
A: 0.432

Q: What about the relative viability (NCI-H1650; first compound 0.08 µM) of the same compound?
A: 0.702

Q: And the relative viability (NCI-H1650; first compound 0.253 µM)?
A: 0.8

Q: And the relative viability (NCI-H1650; first compound 0.8 µM)?
A: 0.53

Q: And the relative viability (NCI-H1650; first compound 2.53 µM)?
A: 0.782

Q: What about the relative viability (NCI-H1650; first compound 8 µM) of the same compound?
A: 0.734

Q: And the relative viability (NCI-H2087; first compound 0.08 µM)?
A: 0.604

Q: What about the relative viability (NCI-H2087; first compound 0.253 µM) of the same compound?
A: 0.605

Q: What about the relative viability (NCI-H2087; first compound 0.8 µM) of the same compound?
A: 0.682

Q: And the relative viability (NCI-H2087; first compound 2.53 µM)?
A: 0.638

Q: And the relative viability (NCI-H2087; first compound 8 µM)?
A: 0.561

Q: And the relative viability (NCI-H2023; first compound 0.08 µM)?
A: 0.445

Q: What about the relative viability (NCI-H2023; first compound 0.253 µM) of the same compound?
A: 0.513

Q: What about the relative viability (NCI-H2023; first compound 0.8 µM) of the same compound?
A: 0.435

Q: And the relative viability (NCI-H2023; first compound 2.53 µM)?
A: 0.345

Q: What about the relative viability (NCI-H2023; first compound 8 µM) of the same compound?
A: 0.348

Q: What about the relative viability (BEN; first compound 0.08 µM) of the same compound?
A: 0.998

Q: And the relative viability (BEN; first compound 0.253 µM)?
A: 1.15

Q: And the relative viability (BEN; first compound 0.8 µM)?
A: 1.04

Q: What about the relative viability (BEN; first compound 2.53 µM) of the same compound?
A: 0.956

Q: And the relative viability (BEN; first compound 8 µM)?
A: 1.07

Q: What about the relative viability (CAL-12T; first compound 0.08 µM) of the same compound?
A: 0.77

Q: What about the relative viability (CAL-12T; first compound 0.253 µM) of the same compound?
A: 0.738

Q: And the relative viability (CAL-12T; first compound 0.8 µM)?
A: 0.759

Q: And the relative viability (CAL-12T; first compound 2.53 µM)?
A: 0.731

Q: What about the relative viability (CAL-12T; first compound 8 µM) of the same compound?
A: 0.402

Q: What about the relative viability (201T; first compound 0.08 µM) of the same compound?
A: 0.688

Q: And the relative viability (201T; first compound 0.253 µM)?
A: 0.909

Q: And the relative viability (201T; first compound 0.8 µM)?
A: 0.861

Q: What about the relative viability (201T; first compound 2.53 µM) of the same compound?
A: 0.84

Q: And the relative viability (201T; first compound 8 µM)?
A: 0.703

Q: What about the relative viability (NCI-H460; first compound 0.08 µM) of the same compound?
A: 0.513

Q: What about the relative viability (NCI-H460; first compound 0.253 µM) of the same compound?
A: 0.343

Q: And the relative viability (NCI-H460; first compound 0.8 µM)?
A: 0.454

Q: What about the relative viability (NCI-H460; first compound 2.53 µM) of the same compound?
A: 0.451

Q: And the relative viability (NCI-H460; first compound 8 µM)?
A: 0.542

Q: And the relative viability (NCI-H596; first compound 0.08 µM)?
A: 0.664

Q: What about the relative viability (NCI-H596; first compound 0.253 µM) of the same compound?
A: 0.631

Q: What about the relative viability (NCI-H596; first compound 0.8 µM) of the same compound?
A: 0.504

Q: And the relative viability (NCI-H596; first compound 2.53 µM)?
A: 0.587

Q: What about the relative viability (NCI-H596; first compound 8 µM) of the same compound?
A: 0.585

Q: And the relative viability (NCI-H1651; first compound 0.08 µM)?
A: 0.166

Q: What about the relative viability (NCI-H1651; first compound 0.253 µM) of the same compound?
A: 0.175

Q: What about the relative viability (NCI-H1651; first compound 0.8 µM) of the same compound?
A: 0.184

Q: And the relative viability (NCI-H1651; first compound 2.53 µM)?
A: 0.168

Q: And the relative viability (NCI-H1651; first compound 8 µM)?
A: 0.176

Q: What about the relative viability (NCI-H520; first compound 0.08 µM) of the same compound?
A: 0.391

Q: What about the relative viability (NCI-H520; first compound 0.253 µM) of the same compound?
A: 0.321

Q: And the relative viability (NCI-H520; first compound 0.8 µM)?
A: 0.439

Q: And the relative viability (NCI-H520; first compound 2.53 µM)?
A: 0.322

Q: And the relative viability (NCI-H520; first compound 8 µM)?
A: 0.339

Q: What about the relative viability (LC-2-ad; first compound 0.08 µM) of the same compound?
A: 0.791

Q: And the relative viability (LC-2-ad; first compound 0.253 µM)?
A: 0.83

Q: And the relative viability (LC-2-ad; first compound 0.8 µM)?
A: 0.713

Q: And the relative viability (LC-2-ad; first compound 2.53 µM)?
A: 0.649

Q: And the relative viability (LC-2-ad; first compound 8 µM)?
A: 0.64

Q: What about the relative viability (NCI-H650; first compound 0.08 µM) of the same compound?
A: 0.397

Q: What about the relative viability (NCI-H650; first compound 0.253 µM) of the same compound?
A: 0.402

Q: And the relative viability (NCI-H650; first compound 0.8 µM)?
A: 0.424

Q: What about the relative viability (NCI-H650; first compound 2.53 µM) of the same compound?
A: 0.378

Q: What about the relative viability (NCI-H650; first compound 8 µM) of the same compound?
A: 0.415

Q: And the relative viability (NCI-H727; first compound 0.08 µM)?
A: 0.64

Q: And the relative viability (NCI-H727; first compound 0.253 µM)?
A: 0.679

Q: What about the relative viability (NCI-H727; first compound 2.53 µM) of the same compound?
A: 0.615

Q: And the relative viability (NCI-H727; first compound 8 µM)?
A: 0.68

Q: And the relative viability (LCLC-97TM1; first compound 0.08 µM)?
A: 0.404

Q: And the relative viability (LCLC-97TM1; first compound 0.253 µM)?
A: 0.555

Q: What about the relative viability (LCLC-97TM1; first compound 0.8 µM) of the same compound?
A: 0.463

Q: What about the relative viability (LCLC-97TM1; first compound 2.53 µM) of the same compound?
A: 0.31

Q: And the relative viability (LCLC-97TM1; first compound 8 µM)?
A: 0.378

Q: And the relative viability (PC-3 [JPC-3]; first compound 0.08 µM)?
A: 1.13

Q: What about the relative viability (PC-3 [JPC-3]; first compound 0.253 µM) of the same compound?
A: 1.01

Q: And the relative viability (PC-3 [JPC-3]; first compound 0.8 µM)?
A: 0.95

Q: And the relative viability (PC-3 [JPC-3]; first compound 2.53 µM)?
A: 1.09

Q: And the relative viability (PC-3 [JPC-3]; first compound 8 µM)?
A: 1.19

Q: What about the relative viability (A-427; first compound 0.08 µM) of the same compound?
A: 0.7

Q: What about the relative viability (A-427; first compound 0.253 µM) of the same compound?
A: 0.776

Q: And the relative viability (A-427; first compound 0.8 µM)?
A: 0.637

Q: What about the relative viability (A-427; first compound 2.53 µM) of the same compound?
A: 0.684

Q: And the relative viability (A-427; first compound 8 µM)?
A: 0.777

— the supplement of paper PMC10307832
